Laboratory results as given in a melting point compilation (Tetko et al.; mined from patent text by program, amines drawn as free bases though some values may be those of a salt).

Row | melting point | Compound
1 | 102 to 104 °C | COC(=O)c1ccc(Cl)nc1C1=NC(=O)C(C)(C(C)C)N1 (centres undefined)
2 | 94 to 95 °C | CCNC(=O)c1c(Cl)cccc1[Si](C)(C)CC
3 | 221 to 222 °C | COc1cc(C(=O)O)ccc1CN1CCOc2ccc(NC(=O)OC3CCCC3)cc21
4 | 220 to 221 °C | COc1ccc2[nH]cc(CCc3nc4ccccc4c(=O)n3-c3ccccc3)c2c1
5 | 140 to 141 °C | CCCCc1oc2ccccc2c1C(=O)NCc1ccc2c(Br)c(OCC(=O)OC)ccc2c1
6 | 82 to 83 °C | O=C(c1ccccc1)N1CCCC(c2nc(-c3ccc(F)cc3)no2)C1 (centres undefined)
7 | 121 to 122 °C | O=C1CCc2cc(Cl)ccc2C1
8 | 70 to 73 °C | NS(=O)(=O)c1c(CF)nsc1OCC(F)(F)F
9 | 143 to 145 °C | CCOC(=O)c1ccc(Cl)c(S(=O)(=O)Cl)c1
10 | 202 to 204 °C | COc1ccc(-c2nc(C)c(NC(C)=O)[nH]2)cc1
11 | 315 °C | c1ccc(-c2ccc(-n3c4ccccc4c4c3ccc3c5ccccc5n(-c5ccc(-c6ccccc6)cc5)c34)cc2)cc1
12 | 108 to 110 °C | COc1ccc(C2SCC(C(=O)O)N2C(=O)c2ccccc2)cc1 (centres undefined)
13 | 145 to 146 °C | CCOC(=O)c1cn(-c2nc(F)c(F)c(NC(C)(C)C)c2F)c2c(Cl)c(F)c(F)cc2c1=O
14 | 65.7 to 66.8 °C | CN1CCN(c2ncccc2C#N)C(c2ccccc2)C1 (centres undefined)
15 | 120 to 122 °C | CC(C)(C)OC(=O)N1C[C@@H](C=O)CC1=O
16 | 223 to 224 °C | COc1cc2nc(N(C)C)nc(N)c2cc1OC
17 | 273 to 276 °C | O=C1c2cc(F)ccc2-n2c1nc1ccccc1c2=O
18 | 85 to 86 °C | Cc1cc(-c2nc(COc3ccc(CCCCn4ccnc4)cc3)co2)sc1Br
19 | 268 to 281 °C | CC(C)Oc1ccc2c(=O)c3ccc(O)cc3oc2c1
20 | 107 to 111 °C | Cc1ccc(C(=O)Cc2ccccc2)cc1
21 | 193 to 196 °C | NN=Cc1ccc(CC(=O)NC2CCC3(CC2)CN(CC(=O)O)C(=O)O3)cc1 (centres undefined)
22 | 138 to 139 °C | CCN1C(=O)C(C)(C)C(=O)N(C)c2cc(CN(CCn3ccc4oc(C)cc4c3=O)Cc3cc(C)n(C)n3)ccc21

Row | melting point | Compound
23 | 109 to 112 °C | N#Cc1cc(/C=C/C(c2cc(Cl)c(Cl)c(Cl)c2)C(F)(F)F)ccc1-n1cnc(NC(=O)C2CC2)n1 (centres undefined)
24 | 201 °C | N#Cc1ncc(F)cc1O
25 | 96 to 97.5 °C | CC(C)N(C(=O)c1c(Cl)cccc1[Si](C)(C)C)C(C)C
26 | 97 to 100 °C | CCNc1ccc(SSc2ccc(NCC)cc2C(=O)NC(C(=O)O)C(C)CC)c(C(=O)NC(C(=O)O)C(C)CC)c1 (centres undefined)
27 | 211 to 213 °C | CCOC(=O)c1nn(-c2ccc(N(C)C)cc2)c(=O)c2c(N)scc12
28 | 178 to 182 °C | c1ccc(COc2ccc3[nH]c(-c4ccc[nH]4)cc3c2)cc1
29 | 130 to 131 °C | OC1CCc2cnc3c(c21)CCO3 (centres undefined)
30 | 160 to 161 °C | CC1CC(C)OP(=O)(Cc2ccc(N)cc2)O1 (centres undefined)
31 | 184 °C | CNC1c2ccccc2-c2[nH]c(=O)c3nccn3c21 (centres undefined)
32 | 206 to 208 °C | C=CCNC1=NS(=O)(=O)c2cnccc2N1
33 | 99 to 101 °C | N=C(Nc1cc(Cl)cc(NC(=O)/C=C/c2ccccc2Br)c1)c1ccccc1
34 | 97 to 99 °C | COC(=O)CC(CSc1ccc2ccccc2c1)C(=O)O (centres undefined)
35 | 151 to 152 °C | C/C(=C(\C#N)C(=S)/N=C/N(C)C)N1CCC(c2ccccc2)CC1
36 | 140 to 143 °C | CCOc1cccc(NC(=O)Nc2ccc(N3CCN(C(=O)Nc4cc(OCCO)ccc4Cl)CC3)nc2)c1
37 | 83 to 85.5 °C | COC(=O)CCCCc1cc2c(n1-c1ccccc1)CC(O)C2 (centres undefined)
38 | 120 to 121 °C | CC(C)(CCl)C(=O)N(O)c1ccccc1
39 | 95 to 96 °C | CC(C)N(C(=O)n1oc(=O)n(Cc2ccccc2)c1=O)c1ccc(F)cc1
40 | 189 to 191 °C | CC(C)(C)C(NC(=O)c1ccc(Cl)cc1)NC(=NC#N)NCc1ccncc1 (centres undefined)
41 | 207 to 209 °C | O=C(Nc1ccccc1)N1CCC(CN2CCc3c([nH]c4ccccc34)C2)CC1
42 | 137 to 138 °C | O=C(O)c1cc(OCc2ccccc2)c(C(=O)c2ccc(Cl)cc2)c([N+](=O)[O-])c1
43 | 119 to 123 °C | CN(CCNC(=C[N+](=O)[O-])SCc1ccccc1)Cc1ccc(Cl)nc1
44 | 213 to 214 °C | CSc1ccnc(-c2nc(=O)c3ccccc3s2)c1

Row | melting point | Compound
45 | > 250 °C | N#Cc1cnc2sc(C(=O)O)cc2c1Nc1ccc2[nH]ccc2c1
46 | 77 °C | CC(C)(C)OC(=O)c1ccc2cncn2c1
47 | 78.5 to 80.7 °C | Cc1ccc(C#N)c(N2CCc3ccccc3CC2)n1
48 | 224 to 226 °C | COc1cc2ccc(C(=O)N3CCN(C(=O)c4cc(OC)c(OC)c(OC)c4)CC3)cc2cc1OC
49 | 134 to 135 °C | COc1ccc(Cl)nc1N
50 | 162 to 164 °C | Cc1ccc2c(c1)C(=O)CC21CNC(=O)C1 (centres undefined)
51 | 190 °C | O=C(O)c1c(-c2ccccc2)c(-c2ccccc2)nn1-c1ccccc1
52 | 188 to 191 °C | CC1CNc2c(cccc2S(=O)(=O)N[C@@H](CCCNC(=N)N)C(=O)N2CC[C@@H](C)C[C@@H]2C(=O)O)C1 (some centres undefined)
53 | 135 to 137 °C | COC(=O)C1=C(C)NC(C)=C(C(=O)OC)C1c1cc([N+](=O)[O-])ccc1OCCNCC(O)c1ccccc1 (centres undefined)
54 | 157 to 168 °C | CN(C)c1n[nH]c(-c2ccc(Cl)cc2)c1CC(=O)O
55 | > 260 °C | COc1cc2c(cc1OC)-c1[nH]c3ccc(O)cc3c1C2=O
56 | 68 to 71 °C | COC(=O)c1c(C(F)(F)C(F)(F)F)[nH]c(C(F)(F)C(F)(F)F)c1C(=O)OC
57 | 155 to 157 °C | O=C(O)c1cc(-c2ccccc2C(F)(F)F)nc(C(F)(F)F)c1
58 | 150 to 152 °C | NC(=O)N(O)CCNC(=O)Cc1cccc(Oc2ccccc2)c1
59 | 116 to 118 °C | COCCN(CCOC)C(=O)c1cccc(NC(=O)Oc2ccccc2)c1
60 | 154 °C | CN(C)CCCNC(=O)[C@@H]1CCCN1S(=O)(=O)c1ccc(Cl)c(COc2cccc3c2NC(C)(C)C=C3n2cncn2)c1Cl
61 | 286 to 288 °C | Oc1ccc(-c2nc3ccccc3[nH]2)cc1
62 | 244 to 247 °C | CC(=O)N1CCc2cc(O)c(C(F)(F)F)cc21
63 | 225 °C | COc1cc(OC)c2c(c1)C(=O)c1cc(C)cc(OC)c1C2=O
64 | 183 to 184 °C | COc1cc(C)nc(NC(=O)NS(=O)(=O)c2c(C)nn(C)c2OC)n1
65 | 205 to 206 °C | COc1ccc([N+](=O)[O-])c2c1CC(NC(C)=O)CC2 (centres undefined)
66 | 111 to 113 °C | COC(=O)CCC(=O)Nc1ccc(C(=O)NNC(=O)OC(C)(C)C)cc1

Row | Compound | melting point
67 | CC(C)CCN1CNC(=O)C12CCNCC2 | 103 to 105 °C
68 | CCn1cc(C(=O)O)c2ccc(Cl)cc21 | 225 to 227 °C
69 | NNC1=Nc2ccc(Cl)cc2C(c2ccccc2F)S(=O)(=O)CC1 (centres undefined) | 159 °C
70 | CC12CC3OC3CC1CCC1C2CCC2(C)C(O)C(N3CCC4(CC3)OCCO4)CC12 (centres undefined) | 186 to 188 °C
71 | FC(F)Oc1ccc2nc(NC3=NCC4(CN5CCC4CC5)O3)sc2c1 (centres undefined) | 223 to 225 °C
72 | N#Cc1ncn2c1[C@@H]1CCCN1C(=O)c1cc(F)ccc1-2 | 254 to 256 °C
73 | Cc1nc2ccc3c(c2o1)OC(CN1CCC(n2c(=O)[nH]c4ccccc42)CC1)CO3 (centres undefined) | 218 to 220 °C
74 | COc1cc(OC)nc(CCl)n1 | 40 to 42 °C
